Source: ChEMBL document CHEMBL1641396, “4-Oxo-1,4-dihydropyridines as selective CB2 cannabinoid receptor ligands: structural insights into the design of a novel inverse agonist series” (J Med Chem, 2010)

Legend:
Cannabinoid receptor 2 [1] = target: T1, Cannabinoid receptor 2 (Homo sapiens, UniProt P34972); assay: Displacement of [3H]-CP55940 from human CB2 receptor expressed in CHO cells after 1 hr; assay type: cell-based
Cannabinoid receptor 1 = Cannabinoid receptor 1 (Homo sapiens, UniProt P21554); assay: Displacement of [3H]-SR141716A from human CB1 receptor expressed in CHO cells after 1 hr; assay type: cell-based
Cannabinoid receptor 2 [2] = target: T1, Cannabinoid receptor 2; assay: Agonist activity at human CB2 receptor expressed in CHO cells assessed as stimulation of [35S]-GTPgammaS binding relative to basal activity; assay type: functional, cell-based
Cannabinoid receptor 2 [3] = target: T1, Cannabinoid receptor 2; assay: Agonist activity at human CB2 receptor expressed in CHO cells assessed as stimulation of [35S]-GTPgammaS binding; assay type: functional, cell-based

T1 sequence (P34972 whole entry): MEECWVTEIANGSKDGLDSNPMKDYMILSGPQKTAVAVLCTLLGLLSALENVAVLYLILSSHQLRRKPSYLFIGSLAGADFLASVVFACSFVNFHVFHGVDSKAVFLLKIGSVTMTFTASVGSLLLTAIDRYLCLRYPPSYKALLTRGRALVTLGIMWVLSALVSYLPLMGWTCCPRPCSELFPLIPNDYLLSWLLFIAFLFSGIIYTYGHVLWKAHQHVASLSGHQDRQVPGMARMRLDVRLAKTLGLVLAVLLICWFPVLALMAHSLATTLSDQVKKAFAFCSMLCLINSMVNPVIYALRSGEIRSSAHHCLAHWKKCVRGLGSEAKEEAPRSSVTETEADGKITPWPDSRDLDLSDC
Sequence of Cannabinoid receptor 1 (P21554 whole entry): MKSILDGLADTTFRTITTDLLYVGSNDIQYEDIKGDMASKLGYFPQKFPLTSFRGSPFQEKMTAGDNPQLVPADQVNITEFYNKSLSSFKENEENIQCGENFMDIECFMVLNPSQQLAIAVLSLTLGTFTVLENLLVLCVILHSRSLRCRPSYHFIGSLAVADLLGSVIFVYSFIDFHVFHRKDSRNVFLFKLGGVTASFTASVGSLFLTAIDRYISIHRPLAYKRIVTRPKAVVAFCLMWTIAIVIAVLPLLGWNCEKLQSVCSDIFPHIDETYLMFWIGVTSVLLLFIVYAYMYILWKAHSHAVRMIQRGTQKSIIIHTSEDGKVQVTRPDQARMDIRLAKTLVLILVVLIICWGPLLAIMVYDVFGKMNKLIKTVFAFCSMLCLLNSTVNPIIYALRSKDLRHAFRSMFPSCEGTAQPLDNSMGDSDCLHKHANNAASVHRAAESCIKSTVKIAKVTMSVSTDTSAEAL

| Structure (SMILES) | Ki (Cannabinoid receptor 2 [1]) [nM] | Ki (Cannabinoid receptor 1) [nM] | Emax (Cannabinoid receptor 2 [2]) [%] | EC50 (Cannabinoid receptor 2 [3]) [nM] |
| --- | --- | --- | --- | --- |
| CCCCCn1cc(C(=O)NC23CC4CC(CC(C4)C2)C3)c(=O)cc1-c1ccc(OC)cc1 | 91.1 | 384 |  |  |
| CCCCCn1cc(C(=O)NC2CCCCC2)c(=O)cc1C(C)(C)C |  | > 3000 |  |  |
| CCCCCn1cc(C(=O)NC2CCCCC2)c(=O)cc1-c1ccccc1 |  | 929 | 62 |  |
| CCCCCn1cc(C(=O)NC23CC4CC(CC(C4)C2)C3)c(=O)cc1C |  | > 3000 | 148 |  |
| CCCCCn1cc(C(=O)NC23CC4CC(CC(C4)C2)C3)c(=S)cc1-c1ccccc1 | 18.8 | > 1000 | 30 | 17 |
| CCCCCn1cc(C(=O)Nc2cccc(C(F)(F)F)c2)c(=O)cc1-c1ccc(Cl)cc1 | > 1000 | > 1000 | 42 | 158 |
| CCCCCCn1cc(C(=O)NC23CC4CC(CC(C4)C2)C3)c(=O)cc1-c1ccccc1 |  | 596 |  |  |
| CCCCCn1cc(NC(=O)OC(C)(C)C)c(=O)cc1-c1ccccc1 | 209 | > 3000 | 26 | 164 |
| CCCCCCC(C)(C)c1ccc([C@@H]2C[C@H](O)CC[C@H]2CCCO)c(O)c1 |  |  | 230 |  |
| CCCCCn1cc(C(=O)NC23CC4CC(CC(C4)C2)C3)c(=O)cc1-c1cccc(Cl)c1 | 1.8 | 51.2 |  |  |
| CCCCCn1cc(C(=O)NC23CC4CC(CC(C4)C2)C3)c(=O)cc1-c1ccc(Cl)cc1 |  | > 1000 |  |  |
| CCCCCn1cc(C(=O)NN2CCCCC2)c(=O)cc1-c1ccccc1 |  | > 3000 | 48 |  |
| CCCCn1cc(C(=O)NC23CC4CC(CC(C4)C2)C3)c(=O)cc1-c1ccccc1 |  | > 1000 |  |  |
| CCCCCn1cc(C(=O)NC23CC4CC(CC(C4)C2)C3)c(=O)cc1-c1ccc(C)cc1 | 13.2 | 134 |  |  |
| CCCCCn1cc(C(=O)NC23CC4CC(CC(C4)C2)C3)c(=O)cc1-c1ccccc1 |  | 592 |  |  |
| CCCCCn1cc(C(=O)Nc2cccc(C(F)(F)F)c2)c(=O)cc1-c1ccccc1 | 25.8 | > 3000 | 42 | 14 |
| CC(NC(=O)c1cn(-c2ccccc2)c(-c2ccccc2)cc1=O)C12CC3CC(CC(C3)C1)C2 (racemic) | > 3000 | > 3000 |  |  |
| CCCCCn1cc(C(=O)NC23CC4CC(CC(C4)C2)C3)c(=O)cc1-c1ccccc1Cl | 0.7 | 34.4 |  |  |
| CCCCCn1cc(C(=O)NC23CC4CC(CC(C4)C2)C3)c(=O)cc1C(C)(C)C |  | > 3000 | 212 |  |
| CCCCCn1cc(C(=O)NC(C)C23CC4CC(CC(C4)C2)C3)c(=O)cc1-c1ccccc1 (racemic) |  | 368 | 46 |  |
| CCCCCn1cc(C(=O)N[C@H]2CCCc3ccccc32)c(=O)cc1-c1ccccc1 |  | > 1000 | 48 |  |
| CCn1cc(C(=O)NC(C)C23CC4CC(CC(C4)C2)C3)c(=O)cc1-c1ccccc1 (racemic) |  | > 3000 |  |  |
| CCCCCn1cc(C(=O)NC2CCCCC2)c(=O)cc1-c1ccc(Cl)cc1 |  | > 1000 | 39 |  |
| CCCCCn1cc(C(=O)NC2CCCCC2)c(=S)cc1-c1ccccc1 | 48 | > 1000 | 45 | 27 |
| CCCCCn1cc(C(=O)N[C@@H]2CCCc3ccccc32)c(=O)cc1-c1ccccc1 |  | 131 | 42 |  |
| CCCC(C)(C)c1ccc2c(c1)OC(C)(C)[C@@H]1CC=C(O)C[C@@H]21 | 20.3 |  | 201 | 146 |
| CCCCCn1cc(NC(=O)C2CCCCC2)c(=O)cc1-c1ccccc1 | 51 | > 3000 | 43 | 25 |
| Cc1c(C(=O)c2cccc3ccccc23)c2cccc3c2n1[C@H](CN1CCOCC1)CO3 |  |  | 207 |  |
| CCCCCn1cc(C(=O)NCC23CC4CC(CC(C4)C2)C3)c(=O)cc1-c1ccccc1 |  | 626 |  |  |
